Experiments:
Bad = test: Western blot, liver of bile acid fed rats: Bad; assay type: in vivo, rat; details: bile acid feeding
Protocol: Male 160-175 g Sprague-Dawley rats (Sprague-Dawley, Indianapolis, Ind.), were maintained on a 12 h light-dark cycle and fed standard laboratory chow ad libitum for 3 days. The animals were then transferred to metabolic cages and fed diets of standard laboratory chow supplemented with either no bile acid or 0.4% (wt/wt) DCA, 0.4% UDCA, or a combination of DCA+UDCA (Bio-Serv, Frenchtown, N.J.). On day 10, the animals were sacrificed by exsanguination under ether anesthesia between 9 a.m. and 11 a.m. The livers were removed, rinsed in normal saline, and flash-frozen in liquid nitrogen until western blot analyses of apoptosis-related proteins were performed.
Cytoplasmic proteins were isolated from rat liver tissue as described previously (Trembley et al., Cell Growth & Differ., 7, 903-916 (1996)). […] Cytoplasmic and mitochondrial protein concentrations were determined using the Bio-Rad protein assay (Bio-Rad Laboratories). […]
Video densitometry was accomplished using a Macintosh II (Apple Computer, Cupertino, Calif.) coupled to a Data Translation DT2255 video digitizer (Data Translation, Marlboro, Mass.) and a JVC GX-N8 video camera (JVC Corporation of America, Elmwood Park, N.J.) as described previously (Kren et al., J. Cell Biol., 123, 707-718 (1993)). Quantitation of the autoradiograms was performed using the NIH Image 1.4 densitometric analysis program.

Hep G2 cells = test: Anti-Fas antibody-induced apoptosis, Hep G2 cells; assay type: cell-based
Protocol: Incubation of cells with ethanol, TGF-β1, anti-Fas antibody or okadaic acid. Freshly isolated rat hepatocytes were cultured for 3 h as described above and then incubated with William's E medium supplemented with either 0.5% ethanol, 50 μM UDCA, ethanol plus UDCA, or no addition (control) for 2 h and 4 h. HuH-7 cells were incubated with Dulbecco's medium supplemented with either 1 nM TGF-β1 (R & D Systems, Minneapolis, Minn.), 100 μM UDCA, TGF-β1+UDCA, or no addition (control) for 24 h, 48 h, and 72 h. Hep G2 cells were incubated with Dulbecco's medium supplemented with either 0.5 μg/ml of anti-Fas antibody CH-11 (Upstate Biotechnology, Inc., Lake Placid, N.Y.), 100 μM UDCA, CH-11+UDCA, or no addition for 48 h. Both HuH-7 cells and human osteogenic sarcoma Saos-2 cells were cultured in Dulbecco's medium supplemented with either 50 nM okadaic acid (Boehringer Mannheim Biochemicals, Inc, Indianapolis, Ind.), 100 μM UDCA, okadaic acid+UDCA, or no addition for 48 h. […]
Morphological evaluation of apoptosis. […] Fluorescence was visualized with a Zeiss standard fluorescence microscope (Carl Zeiss, Inc., Thornwood, N.Y.). […] Stained nuclei were scored by blind analysis and categorized according to the condensation and staining characteristics of chromatin. […] Three fields per dish of approximately 500 nuclei were counted; mean values are expressed as the percent of apoptotic nuclei.

PARP = PARP cleavage in rat hepatocytes; assay type: cell-based; details: pretreatment with UDCA; DCA, TGF-β1 or okadaic acid
Source text: Determination of PARP cleavage. For the determination of PARP cleavage, total protein were separated on a 8% SDS-polyacrylamide electrophoresis gel. Blots were probed with primary polyclonal antibody to PARP (Santa Cruz Biotechnology).

astrocytes = test: Unconjugated bilirubin-induced apoptosis in astrocytes; assay type: cell-based, rat; details: coincubation of UCB with UDCA
Bax = Bax translocation from cytosol to mitochondria in rat hepatocytes; assay type: cell-based; details: preincubation with UDCA
Protocol: Isolation of cytosol and mitochondrial fractions and determination of cytochrome c and Bax content. Freshly isolated rat hepatocytes were cultured for 3 hours as described above and then incubated with William's medium supplemented with either 50 μM of DCA for 4 h, 1 nM TGF-β1 for 24 h and […] okadaic acid for 16 h, in the presence or absence of 100 μM UDCA, or no addition (control). Time-course experiments were also performed. Cells (1.0×10^7/ml) were harvested by centrifugation at 600×g for 5 min at 4° C. The cell pellets were washed once in ice-cold PBS and resuspended with 3 volumes of isolation buffer containing 20 mM Hepes-KOH, pH 7.5, 10 mM KCl, 1.5 mM MgCl2, 1 mM sodium EDTA, 1 mM sodium EGTA, 1 mM dithiothreitol (DTT), suplemmented with the COMPLETE protease inhibitor cocktail (Boehringer Mannheim Biochemicals, Inc., Indianapolis, Ind.) in 250 mM sucrose. After chiling on ice for 15 min, the cells were disrupted by 40 stokes of a glass homogeneizer and the homogenates were centrifuged twice at 2,500×g for 10 min at 4° C. to remove unbroken cells and nuclei. The mitochondria were pelleted by centrifugation at 12,000×g for 30 min at 4° C., resuspended in isolation buffer containing 250 mM sucrose and frozen at −80° C. […]

Row | SMILES | cytoplasmic Bad expression, increase (Bad) | cells exhibiting apoptotic changes (Hep G2 cells; 0.5 μg/ml CH-11 or 100 μM UDCA alone, 48 h) | Inhibition % Apoptosis (Hep G2 cells; inducer CH-11, Hep G2, inhibition by UDCA) | prevention of PARP cleavage (PARP) | inhibition of apoptosis (astrocytes) | prevention of Bax translocation (Bax)
1 | C[C@H](CCC(=O)O)[C@H]1CC[C@H]2[C@@H]3CC[C@@H]4C[C@H](O)CC[C@]4(C)[C@H]3C[C@H](O)[C@]12C [DCA, deoxycholic acid] | approximately 2 fold | – | – | – | – | –
2 | C[C@H](CCC(=O)O)[C@H]1CC[C@H]2[C@@H]3[C@@H](O)C[C@@H]4C[C@H](O)CC[C@]4(C)[C@H]3CC[C@]12C [UDCA, ursodeoxycholic acid] | – | 0.7% | 83.2 ± 7.0% | 60% | over 50% | 45%

From patent publication US20030044413A1, “Methods of limiting apoptosis of cells” (Regents of the University of Minnesota, priority 1998, published 2003)
